Values of other authors, collected in publication PMC5863515, “Re-evaluation of Adrenocorticotropic Hormone and Melanocyte Stimulating Hormone Activation of GPR139 in Vitro” (Frontiers in Pharmacology, 2018).

Target: T1, GPR139 (Homo sapiens, UniProt Q6DWJ6)
T1 sequence (Q6DWJ6 1-353): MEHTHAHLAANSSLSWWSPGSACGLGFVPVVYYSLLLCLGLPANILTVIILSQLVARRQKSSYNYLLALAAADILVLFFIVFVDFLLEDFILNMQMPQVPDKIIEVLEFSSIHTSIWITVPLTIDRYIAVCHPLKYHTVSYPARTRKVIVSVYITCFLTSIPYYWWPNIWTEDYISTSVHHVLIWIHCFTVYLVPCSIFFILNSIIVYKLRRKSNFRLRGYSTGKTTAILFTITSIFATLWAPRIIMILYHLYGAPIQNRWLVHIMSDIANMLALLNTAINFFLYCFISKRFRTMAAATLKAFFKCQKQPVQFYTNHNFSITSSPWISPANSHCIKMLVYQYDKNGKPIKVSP
Set-up: method as in Liu et al., 2015
Settings: ref Liu et al., 2015; cited from earlier work

Q: For `N[C@@H](Cc1c[nH]c2ccccc12)C(=O)O` [L-Trp, L-tryptophan], which EC50 is on record?
A: Its EC50 is 30 to 300 µM.
